Reference: patent US12157746B2, “Tetrahydro-1H-pyrazino[2,1-a]isoindolylquinoline compounds for the treatment of autoimmune disease” (F. HOFFMANN-LA ROCHE AG, priority 2018, dated 2024)

Molecular target: T1, human TLR8 (Homo sapiens, UniProt Q9NR97)
T1 sequence (Q9NR97 27-1041): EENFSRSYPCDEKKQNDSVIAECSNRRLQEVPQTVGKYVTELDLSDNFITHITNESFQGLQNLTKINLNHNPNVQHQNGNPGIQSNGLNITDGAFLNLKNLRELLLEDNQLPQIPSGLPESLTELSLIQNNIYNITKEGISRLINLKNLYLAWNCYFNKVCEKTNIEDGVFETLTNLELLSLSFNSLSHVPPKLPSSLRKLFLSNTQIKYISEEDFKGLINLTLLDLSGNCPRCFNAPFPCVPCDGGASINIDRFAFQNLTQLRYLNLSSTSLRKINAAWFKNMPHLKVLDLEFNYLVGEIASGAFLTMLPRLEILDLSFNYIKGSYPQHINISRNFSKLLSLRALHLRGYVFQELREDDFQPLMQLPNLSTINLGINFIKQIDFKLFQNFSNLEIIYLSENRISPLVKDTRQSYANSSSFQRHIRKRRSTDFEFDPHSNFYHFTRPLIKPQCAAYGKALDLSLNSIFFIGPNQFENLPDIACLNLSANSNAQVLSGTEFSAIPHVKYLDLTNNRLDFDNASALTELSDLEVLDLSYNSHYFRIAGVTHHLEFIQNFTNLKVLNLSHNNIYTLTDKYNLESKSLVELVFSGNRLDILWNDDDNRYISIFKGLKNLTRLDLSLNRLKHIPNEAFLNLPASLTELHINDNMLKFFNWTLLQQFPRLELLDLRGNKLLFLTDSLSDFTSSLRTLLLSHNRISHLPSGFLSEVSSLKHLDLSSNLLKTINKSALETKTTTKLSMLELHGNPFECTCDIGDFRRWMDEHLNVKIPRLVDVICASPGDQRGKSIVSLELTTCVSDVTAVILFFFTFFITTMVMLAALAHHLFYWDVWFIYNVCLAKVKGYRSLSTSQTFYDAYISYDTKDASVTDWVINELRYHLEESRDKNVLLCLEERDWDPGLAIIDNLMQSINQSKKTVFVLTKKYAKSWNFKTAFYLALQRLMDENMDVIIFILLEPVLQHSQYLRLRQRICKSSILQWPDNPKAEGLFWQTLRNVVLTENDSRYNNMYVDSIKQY
Assay: HEK293-Blue-hTLR-8 cells assay
Type: cell-based
Settings: HEK293-Blue-hTLR8 cells, R848 stimulation, 20 hrs, SEAP reporter; read-out: HEK/hTLR8 IC50
In short: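 Antagonism read out in HEK293-Blue-hTLR8 cells carrying an NF-κB/AP-1-driven SEAP reporter, stimulated with R848 (10 μL of 60 uM stock added) alongside serially diluted compound (1% DMSO), 20 h at 37° C. Supernatant SEAP measured with QUANTI-Blue after 2 h at 37° C, absorbance at 620-655 nm.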

With `C[C@@H]1CN(c2ccc(C#N)c3nccnc23)C[C@@H]2c3ccc(N4CCNCC4)cc3CN12` [Example 7, 8-[(4R,10bS)-4-methyl-8-piperazin-1-yl-3,4,6,10b-tetrahydro-1H-pyrazino[2,1-a]isoindol-2-yl]quinoxaline-5-carbonitrile] as the compound, how does the IC50 read?
Its IC50 is less than 3.2 nM.

`C[C@@H]1CN(c2ccc(C#N)c3ncccc23)C[C@@H]2c3ccc(N4C[C@H](N)[C@@H](O)C4)cc3CN12` [Example 40A, 5-[(4R,10bS)-8-[(3S,4S)-3-amino-4-hydroxy-pyrrolidin-1-yl]-4-methyl-3,4,6,10b-tetrahydro-1H-pyrazino[2,1-a]isoindol-2-yl]quinoline-8-carbonitrile] was tested. Which IC50 did it give?
Its IC50 is 1.4 nM.

With `COC12CNCC1CN(c1ccc3c(c1)CN1[C@H](C)CN(c4ccc(C#N)c5ncccc45)C[C@H]31)C2` (stereo partly drawn) [Example 41, 5-[(4R,10bS)-8-(3a-methoxy-1,2,3,4,6,6a-hexahydropyrrolo[3,4-c]pyrrol-5-yl)-4-methyl-3,4,6,10b-tetrahydro-1H-pyrazino[2,1-a]isoindol-2-yl]quinoline-8-carbonitrile] as the compound, how does the IC50 read?
Its IC50 is less than 3.2 nM.

How did the IC50 turn out when `C[C@@H]1CN(c2ccc(C#N)n3nccc23)C[C@@H]2c3ccc(N4C[C@H](N)[C@@](C)(O)C4)cc3CN12` [Example 109, 4-[(4R,10bS)-8-[(3S,4S)-4-amino-3-hydroxy-3-methyl-pyrrolidin-1-yl]-4-methyl-3,4,6,10b-tetrahydro-1H-pyrazino[2,1-a]isoindol-2-yl]pyrazolo[1,5-a]pyridine-7-carbonitrile] was run?
Its IC50 is 6.7 nM.

With `C[C@@H]1CN(c2ccc(C#N)n3nccc23)C[C@@H]2c3ccc(N4C[C@H](N)[C@@H](O)C4)cc3CN12` [Example 111, 4-[(4R,10bS)-8-[(3S,4S)-3-amino-4-hydroxy-pyrrolidin-1-yl]-4-methyl-3,4,6,10b-tetrahydro-1H-pyrazino[2,1-a]isoindol-2-yl]pyrazolo[1,5-a]pyridine-7-carbonitrile] as the compound, how does the IC50 read?
The IC50 was 2 nM.

`C[C@@H]1CN(c2ccc3c(c2)CN2[C@H](C)CN(c4ccc(C#N)n5nccc45)C[C@H]32)CCN1` [Example 97, 4-[(4R,10bS)-4-methyl-8-[(3R)-3-methylpiperazin-1-yl]-3,4,6,10b-tetrahydro-1H-pyrazino[2,1-a]isoindol-2-yl]pyrazolo[1,5-a]pyridine-7-carbonitrile] was tested. Which IC50 did it give?
Its IC50 is 1 nM.

For `C[C@@H]1CN(c2ccc(C#N)c3ncccc23)C[C@@H]2c3ccc(N4CCNC[C@@](C)(O)C4)cc3CN12` [Example 55B, 5-[(4R,10bS)-8-[(6R)-6-hydroxy-6-methyl-1,4-diazepan-1-yl]-4-methyl-3,4,6,10b-tetrahydro-1H-pyrazino[2,1-a]isoindol-2-yl]quinoline-8-carbonitrile], which IC50 is on record?
The IC50 was less than 3.2 nM.

How did the IC50 turn out when `C[C@@H]1CN(c2ccc(C#N)n3nccc23)C[C@@H]2c3ccc(N4CC5CNCC(C4)O5)cc3CN12` [Example 107, 4-[(4R,10bS)-4-methyl-8-(9-oxa-3,7-diazabicyclo[3.3.1]nonan-3-yl)-3,4,6,10b-tetrahydro-1H-pyrazino[2,1-a]isoindol-2-yl]pyrazolo[1,5-a]pyridine-7-carbonitrile] was run?
The IC50 was 16.5 nM.

With `CO[C@H]1CN(c2ccc3c(c2)CN2C3CN(c3ccc(C#N)c4ncccc34)C[C@H]2C)C[C@@H]1N` (single isomer, unassigned) [Example 16A] as the compound, how does the IC50 read?
The IC50 was less than 3.2 nM.

How did the IC50 turn out when `CO[C@@H]1CN(c2ccc3c(c2)CN2[C@H](C)CN(c4ccc(C#N)n5nccc45)C[C@H]32)CC[C@@H]1N` [Example 105, 4-[(4R,10bS)-8-[(3R,4S)-4-amino-3-methoxy-1-piperidyl]-4-methyl-3,4,6,10b-tetrahydro-1H-pyrazino[2,1-a]isoindol-2-yl]pyrazolo[1,5-a]pyridine-7-carbonitrile] was run?
Its IC50 is 4.1 nM.

With `C[C@@H]1CN(c2ccc(C#N)c3ncccc23)C[C@@H]2c3ccc(N4C[C@@H](N)[C@](C)(O)C4)cc3CN12` [Example 45A, 5-[(4R,10bS)-8-[(3R,4R)-4-amino-3-hydroxy-3-methyl-pyrrolidin-1-yl]-4-methyl-3,4,6,10b-tetrahydro-1H-pyrazino[2,1-a]isoindol-2-yl]quinoline-8-carbonitrile] as the compound, how does the IC50 read?
The IC50 was 1.5 nM.

How did the IC50 turn out when `N#Cc1ccc(N2CCN3Cc4cc(N5CCNCC5)ccc4C3C2)c2scnc12` (centres unmarked) [Example 4, 7-(8-piperazin-1-yl-3,4,6,10b-tetrahydro-1H-pyrazino[2,1-a]isoindol-2-yl)-1,3-benzothiazole-4-carbonitrile] was run?
Its IC50 is less than 3.2 nM.

With `C[C@@H]1CN(c2ccc(C#N)c3ncccc23)C[C@@H]2c3ccc(N4CCNC[C@@H]4CO)cc3CN12` [Example 10, 5-[(4R,10bS)-8-[(2R)-2-(hydroxymethyl)piperazin-1-yl]-4-methyl-3,4,6,10b-tetrahydro-1H-pyrazino[2,1-a]isoindol-2-yl]quinoline-8-carbonitrile] as the compound, how does the IC50 read?
Its IC50 is less than 3.2 nM.

Which IC50 does the source give for `CN[C@H]1CN(c2ccc3c(c2)CN2[C@H](C)CN(c4ccc(C#N)c5ncccc45)C[C@H]32)C[C@@H]1OC` [Example 23, 5-[(4R,10bS)-8-[(3S,4S)-3-methoxy-4-(methylamino)pyrrolidin-1-yl]-4-methyl-3,4,6,10b-tetrahydro-1H-pyrazino[2,1-a]isoindol-2-yl]quinoline-8-carbonitrile] here?
The IC50 was less than 3.2 nM.

How did the IC50 turn out when `C[C@@H]1CN(c2ccc(C#N)c3ncccc23)C[C@@H]2c3ccc(N4CC5(CNCCO5)C4)cc3CN12` [Example 35, 5-[(4R,10bS)-4-methyl-8-(5-oxa-2,8-diazaspiro[3.5]nonan-2-yl)-3,4,6,10b-tetrahydro-1H-pyrazino[2,1-a]isoindol-2-yl]quinoline-8-carbonitrile] was run?
The IC50 was less than 3.2 nM.

`C[C@@H]1CN(c2ccc(C#N)c3ncccc23)C[C@@H]2c3ccc(N4CC(N)C5(COC5)C4)cc3CN12` (stereo partly drawn) [Example 18, 5-[(4R,10bS)-8-(5-amino-2-oxa-7-azaspiro[3.4]octan-7-yl)-4-methyl-3,4,6,10b-tetrahydro-1H-pyrazino[2,1-a]isoindol-2-yl]quinoline-8-carbonitrile] was tested. Which IC50 did it give?
The IC50 was less than 3.2 nM.

How did the IC50 turn out when `C[C@@H]1CN(c2ccc(C#N)c3ncccc23)C[C@@H]2c3ccc(N[C@@H]4CNC[C@@H]4F)cc3CN12` [Example 32, 5-[(4R,10bS)-8-[[(3R,4S)-4-fluoropyrrolidin-3-yl]amino]-4-methyl-3,4,6,10b-tetrahydro-1H-pyrazino[2,1-a]isoindol-2-yl]quinoline-8-carbonitrile] was run?
The IC50 was less than 3.2 nM.

For `CO[C@H]1CCN(c2ccc3c(c2)CN2[C@H](C)CN(c4ccc(C#N)n5nccc45)C[C@H]32)C[C@H]1N` [Example 106, 4-[(4R,10bS)-8-[(3R,4S)-3-amino-4-methoxy-1-piperidyl]-4-methyl-3,4,6,10b-tetrahydro-1H-pyrazino[2,1-a]isoindol-2-yl]pyrazolo[1,5-a]pyridine-7-carbonitrile], which IC50 is on record?
The IC50 was 2.9 nM.

With `C[C@@H]1CN(c2ccc(C#N)c3ncccc23)C[C@@H]2c3ccc(N[C@@H]4CNC[C@H]4F)cc3CN12` [Example 33, 5-[(4R,10bS)-8-[[(3R,4R)-4-fluoropyrrolidin-3-yl]amino]-4-methyl-3,4,6,10b-tetrahydro-1H-pyrazino[2,1-a]isoindol-2-yl]quinoline-8-carbonitrile] as the compound, how does the IC50 read?
Its IC50 is less than 3.2 nM.

`[2H]c1ccc2c(N3C[C@@H](C)N4Cc5cc(N6CC(C)(N)C6)ccc5[C@H]4C3)ccc(C#N)c2n1` [Example 92, 5-[(4R,10bS)-8-(3-amino-3-methyl-azetidin-1-yl)-4-methyl-3,4,6,10b-tetrahydro-1H-pyrazino[2,1-a]isoindol-2-yl]-2-deuterio-quinoline-8-carbonitrile] was tested. Which IC50 did it give?
The IC50 was less than 0.3 nM.

Which IC50 does the source give for `C[C@@H]1CN(c2ccc(C#N)c3ncccc23)C[C@@H]2c3ccc(N4C[C@H]5NCCO[C@@H]5C4)cc3CN12` [Example 44, 5-[(4R,10bS)-4-methyl-8-[(4aR,7aR)-3,4,4a,5,7,7a-hexahydro-2H-pyrrolo[3,4-b][1,4]oxazin-6-yl]-3,4,6,10b-tetrahydro-1H-pyrazino[2,1-a]isoindol-2-yl]quinoline-8-carbonitrile] here?
Its IC50 is 0.4 nM.

`CO[C@@H]1CN(c2ccc3c(c2)CN2[C@H](C)CN(c4ccc(C#N)n5ncc(F)c45)C[C@H]32)C[C@H]1N` [Example 113, 4-[(4R,10bS)-8-[(3R,4R)-3-amino-4-methoxy-pyrrolidin-1-yl]-4-methyl-3,4,6,10b-tetrahydro-1H-pyrazino[2,1-a]isoindol-2-yl]-3-fluoro-pyrazolo[1,5-a]pyridine-7-carbonitrile] was tested. Which IC50 did it give?
Its IC50 is 2 nM.

With `C[C@@H]1CN(c2ccc(C#N)c3ncccc23)C[C@@H]2c3ccc(NCCN(C)C)cc3CN12` [Example 26, 5-[(4R,10bS)-8-[2-(dimethylamino)ethylamino]-4-methyl-3,4,6,10b-tetrahydro-1H-pyrazino[2,1-a]isoindol-2-yl]quinoline-8-carbonitrile] as the compound, how does the IC50 read?
Its IC50 is less than 3.2 nM.
